Measured values: PubChem BioAssay AID248 (DTP/NCI, 2004)
Several values for one entry are separate records, joined by “and”; a condition that tells them apart may be missing. Equal values may be shown once. Inconclusive results and toxic doses are left out. No stated cut-off is given here; in the data, active means T/C of 150% or more; inactive means T/C below 125%.

Test system: L1210 leukemia ip in BDF1 mice, survival T/C
Experiment: NCI In Vivo Anticancer Drug Screen. Data for tumor model L1210 Leukemia (intraperitoneal) in B6D2F1 (BDF1) mice
Settings: endpoint: mean survival time, higher = longer survival
Procedure, shortened: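 Tumor cells were implanted, animals were treated, and survival was followed. The result divides the treated measurement by the vehicle-control measurement.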

[1] = dose: 100.0 mg/kg/injection, schedule: Q01DX001 (ip), vehicle: carboxymethylcellulose (CMC)
[2] = dose: 200.0 mg/kg/injection, schedule: Q01DX001 (ip), vehicle: carboxymethylcellulose (CMC)
[3] = dose: 400.0 mg/kg/injection, schedule: Q01DX001 (ip), vehicle: carboxymethylcellulose (CMC)

Measured: T/C

O=c1oc2c3ccccc3c3ccccc3c2o1
inactive: dose: 25.0 mg/kg/injection, schedule: Q01DX009 (ip), vehicle: Klucel (hydroxypropylcellulose) (HPC) 113 % of control | dose: 50.0 mg/kg/injection, schedule: Q01DX009 (ip), vehicle: Klucel (hydroxypropylcellulose) (HPC) 103 % of control | dose: 100.0 mg/kg/injection, schedule: Q01DX009 (ip), vehicle: Klucel (hydroxypropylcellulose) (HPC) 94 % of control

COc1ccc2c(c1C)CCC1(CO)CC(C)=CCC21 (stereo not drawn)
inactive: dose: 100.0 mg/kg/injection, schedule: Q01DX009 (ip), vehicle: saline sonified 93 % of control | dose: 200.0 mg/kg/injection, schedule: Q01DX009 (ip), vehicle: saline sonified 94 % of control | dose: 400.0 mg/kg/injection, schedule: Q01DX009 (ip), vehicle: saline sonified 91 % of control

CC(C)=CC(=O)CNC(N)=S
inactive: dose: 100.0 mg/kg/injection, schedule: Q04DX003 (ip), vehicle: Klucel (hydroxypropylcellulose) (HPC) 100 % of control and 98 % of control | dose: 200.0 mg/kg/injection, schedule: Q04DX003 (ip), vehicle: Klucel (hydroxypropylcellulose) (HPC) 101 % of control | dose: 400.0 mg/kg/injection, schedule: Q04DX003 (ip), vehicle: Klucel (hydroxypropylcellulose) (HPC) 93 % of control

O=C(Nc1ccccc1Br)c1ccc(Cl)cc1Cl
inactive: dose: 75.0 mg/kg/injection, schedule: Q01DX009 (ip), vehicle: Klucel (hydroxypropylcellulose) (HPC) 96 % of control | dose: 100.0 mg/kg/injection, schedule: Q04DX002 (ip), vehicle: Klucel (hydroxypropylcellulose) (HPC) 93 % of control | dose: 150.0 mg/kg/injection, schedule: Q01DX009 (ip), vehicle: Klucel (hydroxypropylcellulose) (HPC) 96 % of control | dose: 200.0 mg/kg/injection, schedule: Q04DX002 (ip), vehicle: Klucel (hydroxypropylcellulose) (HPC) 107 % of control | dose: 300.0 mg/kg/injection, schedule: Q01DX009 (ip), vehicle: Klucel (hydroxypropylcellulose) (HPC) 100 % of control | dose: 400.0 mg/kg/injection, schedule: Q04DX002 (ip), vehicle: Klucel (hydroxypropylcellulose) (HPC) 97 % of control

O=c1[nH]c2cc(Br)ccc2c2ccccc12
inactive: [1] 95 % of control | [2] 101 % of control | [3] 94 % of control

C=C1C=C(C)N(C(C)=O)CCN1C(C)=O
inactive: dose: 100.0 mg/kg/injection, schedule: Q01DX009 (ip), vehicle: saline 95 % of control | dose: 200.0 mg/kg/injection, schedule: Q01DX009 (ip), vehicle: saline 92 % of control | dose: 400.0 mg/kg/injection, schedule: Q01DX009 (ip), vehicle: saline 90 % of control

CCn1c2ccccc2c2cc(C=O)ccc21
inactive: dose: 25.0 mg/kg/injection, schedule: Q01DX009 (ip), vehicle: other 95 % of control | dose: 50.0 mg/kg/injection, schedule: Q01DX009 (ip), vehicle: other 98 % of control and 106 % of control | dose: 100.0 mg/kg/injection, schedule: Q01DX009 (ip), vehicle: other 88 % of control | dose: 200.0 mg/kg/injection, schedule: Q01DX009 (ip), vehicle: other 94 % of control

Cc1ccc(N2CCN(C(C)(C)C#N)CC2)cc1
inactive: dose: 100.0 mg/kg/injection, schedule: Q01DX001 (ip), vehicle: saline 102 % of control | dose: 200.0 mg/kg/injection, schedule: Q01DX001 (ip), vehicle: saline 98 % of control

Cc1cccc(N=Cc2ccccc2O)c1
inactive: dose: 50.0 mg/kg/injection, schedule: Q01DX009 (ip), vehicle: saline with Tween-80 99 % of control | [1] 95 % of control | dose: 100.0 mg/kg/injection, schedule: Q01DX009 (ip), vehicle: saline with Tween-80 97 % of control | [2] 97 % of control | dose: 200.0 mg/kg/injection, schedule: Q01DX009 (ip), vehicle: saline with Tween-80 95 % of control | [3] 103 % of control
